Assay results reported in US4608378A, “Tetrahydroisoxazolo[4,5-c]pyridine derivatives useful in the treatment of malfunctions of the acetylcholine or muscarinic systems” (H. Lundbeck A/S, priority 1983, dated 1986).
Like-named read-outs stand apart in the source and are kept apart here.

Legend:
[1] = system: heat stimulus reaction in rats; experiment: Hot Plate Test; type: in vivo; settings: Rattus norvegicus, sc, 0.5 h, s.c., 55° C. hot plate, 30 minutes after injection
Protocol: A group of 10 rats was used for each dose. Each rat was placed on a 55° C. hot plate and the reaction time in seconds was recorded from the moment the rat was placed on the plate until the rat reacted to the heat stimulus. The criteria for reaction were licking of paws, lifting of legs or jumping. The rat was removed from the plate immediately after the reaction. The rat was rejected if the reaction time was more than 10 seconds. After control testing the test substance was injected subcutaneously. The rat was tested on the hot plate 30 minutes after the injection and the reaction times were recorded. A cut-off time of 30 seconds was used. The results were expressed as mean percent effect (MPE), and ED50 values were calculated.

[2] = system: muscarinic cholinergic receptors (guinea pig ileum); experiment: Muscarinic cholinergic agonism, guinea pig ileum; type: cell-based; settings: Cavia porcellus; isolated guinea pig ileum, contraction, log-probit analysis; read-out: Musc. agonism ileum ED50
Protocol: Muscarinic cholinergic agonism, guinea pig ileum
Tyrode solution (NaCl 137 mM, KCl 2.7 mM, CaCl2 1.8 mM, MgCl2 1.1 mM, NaH2 PO4 0.32 mM, NaHCO3 4.8 mM, glucose 5.0 mM) foregassed with oxygen.
A guinea pig is killed by a blow on its head and exsanguinated. The caudal part (about 15 cm) of ileum is removed and cleaned in Tyrode solution. Three ileum pieces (2.5-3.0 cm long) are cut and placed separately in 10 ml organ baths containing Tyrode solution. Each specimen is fixed to a pin in the bottom of the organ bath and connected through a spring to a Grass FT 03 transducer (isotonic measurement). The specimens are kept under a tone of 1.0 g.
Concentration response curves to acetylcholine and test drugs are obtained by adding alternately acetylcholine and the test drugs in Tyrode solution to the both in 3-6 different concentrations. Each concentration is allowed to exert its maximal contracting effect before the tissue is washed and the next concentration is added.
From the concentration effect curves the […] values for acetylcholine and the test drugs are calculated by log-probit analysis.

[3] = biological target: muscarinic cholinergic receptors; experiment: 3H-PrBCM binding to muscarinic cholinergic receptors (brain); settings: rat whole brain minus cerebellum; 1.5 nM 3H-PrBCM, 30° C.
Protocol: ^3 --H-PrBCM binding to muscarinic cholinergic receptors
Whole brain minus cerebellum of a rat was homogenized in 10 vol icecold 0.32M sucrose, pH 7.4. The homogenate was centrifuged at 600 g for 10 minutes and the supernatant at 25000 g for 55 min. at 4° C. with rehomogenization of the pellet in 0.32M sucrose. Incubation tubes in triplicate received at 30° C. test substance and tissue suspension. After 10 min. of incubation ligand (NEN,28-44 Ci/mmol) was added (final conc. of ^3 H-PrBCM: 1.5 nM). After 15 min. of incubation the reaction was stopped by addition of sodiumthiosulphate. The samples were filtered through Whatman GF/B filters (25 mm). The tubes and filters were rinsed twice with buffer. Non-specific binding was determined in the presence of 2.5 μM atropine. IC50 values were calculated by log probit analysis.

pain threshold in mice = experiment: Mouse Grid Shock (pain threshold); type: in vivo; settings: ip, read-out: Grid shock MED
Protocol: The mouse grid consists of a perspex cage with wire grid bottom and a perspex lid, on which is placed a microphone sensitive to the frequency of mouse-squeak. A stimulator with motordriven potentiometer applies a sequence of square wave impulses of continuously increasing milliamperage to the grid. Frequence of impulses 20 cycles/sec., duration 5 msec. Milliamperage is recorded on a digital amperemter connected to the stimulator. Activation of the microphone by a mouse-squeak cuts off the current and the final milliamperage appear on the meter.
Five mice are used for each dose level. Each mouse serves as its own control. Prior to the administration of test substance the animals are placed on the grid one at a time, and the pain threshold is determined by increasing the current intensity until the mouse squeaks. The pain threshold may be read on the milliampermeter. Fifteen minutes and 30 minutes after administration of test substance the mice are tested again and the pain thresholds recorded.
Analgesic effect is present when the pain threshold is increased over the predosing value (control value). The results are stated as % increase in pain threshold calculated on the basis of the control value. The registration can also be done as an on-line procedure. In this case the punching instruction and punching cards will be provided automatically, and the results will be registered as a minimal effective dose (MED) determined after van der Waerden's X-test.

[4] = system: isoniazide-induced seizures in mice; experiment: Isoniazide antagonism (convulsions); type: in vivo; settings: Mus musculus, ip, read-out: Isoniazide antagonism ED50
Protocol: Isoniazide 300 mg/kg s.c.
Five mice are used for each dose level. Immediately after administration of test substance, isoniazide 300 mg/kg is injected s.c. This dose of isoniazide induces intermittent tonic clonic seizures within 60 minutes.
The calculations are performed as an "on-line procedure" on the EDP-terminal. The results are recorded as % increase in time until convulsions occur and, ED50 values were determined.

AcCh receptors = settings: background statement; cited from earlier work
[5] = peripheral administration; cited from earlier work
[6] = peripheral administration; cited from earlier work; remark: listed apart in the source
[7] = cited from earlier work
[8] = mice, minimal effective dose, increase in pain threshold, test substance i.p. (may be tested orally)
[9] = mice, test compound i.p., isoniazide 300 mg/kg s.c., time until convulsions

Compound | ED50 [1] [µmol/kg] | EC50 [2] [µM] | IC50 [3] [µM] | minimal effective dose (pain threshold in mice; [8]) [µmol/kg] | ED50 [4, 9] [µmol/kg] | AcCh agonist (AcCh receptors) | central effects [5] | penetration of the BBB [6] | hydrolysis of ester group in vivo [7] | minimal effective dose (pain threshold in mice) [µmol/kg] | ED50 [4] [µmol/kg]
COc1noc2c1CNCC2C (racemic) [O,7-Dimethyl-THPO, 3-Methoxy-7-methyl-4,5,6,7-tetrahydroisoxazolo[4,5-c]pyridine] | > 98 | 13 | 12 | 98 | 110 | – | – | – | – | – | –
COC(=O)C1=CCCN(C)C1 [Arecoline, methyl 1-methyl-1,2,5,6-tetrahydropyridine-3-carboxylate] | – | – | – | – | – | AcCh agonist | very weak and frequently negligible central effects | capable of penetrating the BBB after peripheral administration | very rapidly hydrolyzed in vivo | – | –
COc1noc2c1CN(C)CC2 [O,5-Dimethyl-THPO, 3-Methoxy-5-methyl-4,5,6,7-tetrahydroixoxazolo[4,5-c]pyridine] | 99 | 0.83 | 27 | 49 | 29 | – | – | – | – | – | –
C=CCOc1noc2c1CNCC2 [O--Allyl-THPO, 3-Allyloxy-4,5,6,7-tetrahydroisoxazolo[4,5-c]pyridine] | > 92 | > 13 | 9.6 | 46 | 23 | – | – | – | – | – | –
c1ccc(COc2noc3c2CNCC3)cc1 [O--Benzyl-THPO, 3-Benzyloxy-4,5,6,7-tetrahydroisoxazolo[4,5-c]pyridine] | > 75 | > 13 | 32 | > 150 | 19 | – | – | – | – | – | –
CCCCOc1noc2c1CNCC2 [O--Butyl-THPO, 3-Butoxy-4,5,6,7-tetrahydroisoxazolo[4,5-c]pyridine] | > 86 | > 13 | 15 | > 170 | > 170 | – | – | – | – | – | –
CC=CCOc1noc2c1CNCC2 [O--Crotyl-THPO, 3-(2-Butenyloxy)-4,5,6,7-tetrahydroisoxazolo[4,5-c]pyridine] | > 87 | > 13 | 14 | 170 | < 43 | – | – | – | – | – | –
CCOc1noc2c1CN(C)CC2 [O--Ethyl-5-Methyl-THPO, 3-Ethoxy-5-methyl-4,5,6,7-tetrahydroisoxazolo[4,5-c]pyridine] | > 91 | 1.6 | 2.4 | > 91 | 41 | – | – | – | – | – | –
CCOc1noc2c1CNCC2 [O--Ethyl-THPO, 3-Ethoxy-4,5,6,7-tetrahydroisoxazolo[4,5-c]pyridine] | > 98 | 3.4 | 6 | > 98 | 7.3 | – | – | – | – | – | –
CC(C)COc1noc2c1CNCC2 [O--Isobutyl-THPO, 3-Isobutoxy-4,5,6,7-tetrahydroisoxazolo[4,5-c]pyridine] | > 86 | > 13 | > 13 | > 86 | 48 | – | – | – | – | – | –
CC(C)Oc1noc2c1CNCC2 [O--Isopropyl-THPO, 3-Isopropoxy-4,5,6,7-tetrahydroisoxazolo[4,5-c]pyridine] | > 91 | > 13 | 3.5 | > 46 | 19 | – | – | – | – | – | –
COc1noc2c1CN(Cc1ccccc1)CC2 [O--Methyl-5-Benzyl-THPO, 3-Methoxy-5-benzyl-4,5,6,7-tetrahydroisoxazolo[4,5-c]pyridine] | > 71 | > 13 | > 50 | > 71 | 71 | – | – | – | – | – | –
CCN1CCc2onc(OC)c2C1 [O--Methyl-5-Ethyl-THPO, 3-Methoxy-5-ethyl-4,5,6,7-tetrahydroisoxazolo[4,5-c]pyridine] | – | > 13 | 15 | 84 | 84 | – | – | – | – | – | –
COc1noc2c1CNCC2 [O--Methyl-THPO, 3-Methoxy-4,5,6,7-tetrahydroisoxazolo[4,5-c]pyridine] | 62 | 1.8 | 45 | 26 | 2.8 | – | – | – | – | – | –
C#CCOc1noc2c1CNCC2 [O--Propargyl-THPO, 3-(2-Propynyloxy)-4,5,6,7-tetrahydroisoxazolo[4,5-c]pyridine] | 86 | 1.2 | 5.8 | 11 | 3 | – | – | – | – | – | –
CCCOc1noc2c1CNCC2 [O--Propyl-THPO, 3-Propoxy-4,5,6,7-tetrahydroisoxazolo[4,5-c]pyridine] | > 91 | > 13 | 10 | > 91 | 50 | – | – | – | – | – | –
Oc1noc2c1CNCC2 [THPO, 3-Hydroxy-4,5,6,7-tetrahydroisoxazolo[4,5-c]pyridinium bromide, reference compound] | > 90 | > 13 | – | – | – | – | – | – | – | > 1500 | > 1500
